Results published in PubChem BioAssay (NCI).
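48-hour exposure; five concentrations; linearly interpolated endpoints. At the GI50, growth is halved. The concentration for full growth arrest is given as TGI.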

tested on: NCI-H23 lung; experiment: inhibition of tumour cell growth, NCI panel, 48 h

| Compound | TGI [µM] | GI50 [µM] |
| --- | --- | --- |
| COC(=O)C(=O)C(C(=O)C=C(C)C)C(=O)C(=O)Nc1ccc(Cl)cc1C (stereo unspecified) | > 100 | – |
| CC(=O)[O][Hg][c]1c(C)c(C)c(C)c(C)c1C | 2.52 | 0.98 |
| C[C@]12CC[C@@H]3c4ccc(Oc5nc(N6CC6)nc(N6CC6)n5)cc4CC[C@H]3[C@@H]1CCC2=O | 19 | 3.36 |
| COc1cc(C(=O)O[C@H](C(N)=O)[C@]2(C)CO2)c2ccccc2c1 | 21.8 | 7.95 |
| Cc1cccc(C(C)(C)C)c1NC(=O)CCc1n[nH]c(=S)o1 | > 100 | – |
| Cc1ccc(C(=O)/C=C/c2ccccc2O)c(C)c1 | > 100 | – |
| O=S(O)CCCCSSCCCCSSCCCCS(=O)O | > 100 | – |
| COc1cc2c(/C=C3/C(=O)Nc4cccc(Cl)c43)c(Cl)n(Cc3ccccc3)c2cc1C | 15 | 4.59 |
| CC(=O)SCCC1c2[nH]c3ccccc3c2CCN1O (stereo unspecified) | > 100 | – |
| CCOC(=O)NC(=O)c1cn(CCCOC(=O)NCCCCCCNC(=O)OCCCn2c(=O)c(C(=O)NC(=O)OCC)cn(C)c2=O)c(=O)n(C)c1=O | > 100 | – |
| COc1ccc2cc(C(=O)/C=C/c3cccc(OC)c3OC)ccc2c1 | 25.3 | 11.2 |
| O=C1C2=C(CC3C(C2)C3(Br)Br)C(=O)C2=C1CC1C(C2)C1(Br)Br (stereo unspecified) | > 100 | – |
| CC(C)=CC(=O)N1CCN(C(=O)C=C(C)C)CC1 | > 100 | – |
| CCCCC/C=C/C/C=C/CCCCCCCC1=NC(C)(C)CN1C(C)C | 3.24 | 1.49 |
| CCc1cccc(C)c1NC(C)=O | > 100 | – |
| O=C(CC(=O)N1N=C(c2ccccc2)C(N=Nc2ccc(Cl)cc2)C1=O)Nc1ccccc1Cl (stereo unspecified) | 97 | – |

tested on: ACHN renal; experiment: inhibition of tumour cell growth, NCI panel, 48 h

| Compound | GI50 [µM] | TGI [µM] |
| --- | --- | --- |
| CC(C)(C)OC(=O)N(CCCN(CCn1c2c(c3ccccc3c1=O)C(=O)c1ccccc1-2)C(=O)OC(C)(C)C)CCn1c2c(c3ccccc3c1=O)C(=O)c1ccccc1-2 | 14.5 | > 50 |
| Cc1c2c(nn1-c1ccc(S(=O)(=O)/N=C3\SCC(=O)N3C(=O)c3ccccc3)cc1)-c1ccccc1CC2 | 24.6 | 70.2 |
| Cc1ccc(N=NC(C(=O)c2ccccc2)C(=O)c2ccccc2)cc1 | – | > 100 |
| Cc1ccc(NC(=O)C2C(=O)N(c3ccc(C)c(C)c3)C(=O)/C2=N/O)cc1C (stereo unspecified) | – | > 100 |
| Nc1c(-c2ccc(Br)cc2)[n+]([O-])c2ccccc2[n+]1[O-] | – | > 100 |
| CCCCNC(=O)NS(=O)(=O)c1ccc(N2N=C(c3ccc(C)cc3C)CC2c2ccc(N(C)C)cc2)cc1 (stereo unspecified) | 3.93 | > 100 |
| C#CC[C@]12CC(=O)CC[C@H]1CC(=O)C2 | – | > 100 |
| CNC=O.[O]=[Ge].[O]=[Ge].[O]=[Ge].[O]=[Ge][OH].[O]=[Ge][OH] | – | > 100 |
| CCOC(=O)c1c(C)n(Cc2ccc(OC)cc2)c2c1cc(O)c1[nH]c3c(c12)CCCC3 | 6.72 | 35.6 |
| N#CCCN(c1ccc(/C=C2\N=C(c3ccc(Cl)cc3)OC2=O)cc1)S(=O)(=O)c1ccccc1 | – | > 100 |
| Cc1cc(NS(=O)(=O)c2ccc(NC(=O)c3cccc4c(=O)c5ccccc5[nH]c34)cc2)no1 | – | > 100 |
| O=C(/C=C/c1ccccc1Cl)c1ccccc1Cl | – | 31.1 |
| CC(C)=[CH][Sb]([Br])([CH]=C(C)C)([CH]=C(C)C)[CH]=C(C)C | 28.8 | > 100 |
| COc1cc([N+](=O)[O-])ccc1NC(=O)C(F)(F)F | – | > 100 |
| COc1cc(-c2c(C#N)c(N)n3c(nc4ccccc43)c2C#N)cc(Br)c1OC | > 100 | > 100 |
| N#CCCN(CCC#N)c1ccc(/C=C2\N=C(CN3C(=O)c4ccccc4C3=O)OC2=O)cc1 | – | > 100 |
| N#C/C(C(=S)Nc1ccccc1)=C1/NN=C2c3ccccc3C(=O)NN21 | 35.5 | > 100 |
| CSc1nc(NC2OC(COC(C)=O)C(OC(C)=O)C(OC(C)=O)C2OC(C)=O)c2c(OC(C)=O)c(C)c(=O)oc2n1 (stereo unspecified) | – | > 100 |

| Compound | GI50 [µM] | TGI [µM] |
| --- | --- | --- |
| COC(=O)C(=O)C(C(=O)C=C(C)C)C(=O)C(=O)Nc1ccc(Cl)cc1C (stereo unspecified) | – | > 100 |
| CC(=O)[O][Hg][c]1c(C)c(C)c(C)c(C)c1C | 10 | 23.1 |
| C[C@]12CC[C@@H]3c4ccc(Oc5nc(N6CC6)nc(N6CC6)n5)cc4CC[C@H]3[C@@H]1CCC2=O | 1.13 | 13 |
| COc1cc(C(=O)O[C@H](C(N)=O)[C@]2(C)CO2)c2ccccc2c1 | 15.9 | 30.9 |
| Cc1cccc(C(C)(C)C)c1NC(=O)CCc1n[nH]c(=S)o1 | – | > 100 |
| Cc1ccc(C(=O)/C=C/c2ccccc2O)c(C)c1 | – | > 100 |
| O=S(O)CCCCSSCCCCSSCCCCS(=O)O | – | > 100 |
| COc1cc2c(/C=C3/C(=O)Nc4cccc(Cl)c43)c(Cl)n(Cc3ccccc3)c2cc1C | 3.58 | 33.3 |
| CC(=O)SCCC1c2[nH]c3ccccc3c2CCN1O (stereo unspecified) | – | > 100 |
| CCOC(=O)NC(=O)c1cn(CCCOC(=O)NCCCCCCNC(=O)OCCCn2c(=O)c(C(=O)NC(=O)OCC)cn(C)c2=O)c(=O)n(C)c1=O | – | > 100 |
| COc1ccc2cc(C(=O)/C=C/c3cccc(OC)c3OC)ccc2c1 | 8.38 | 22.2 |
| CCCCn1c(-c2ccc(C(=O)O/N=C(\N)c3ccc(OC)cc3)cc2)nc(-c2ccccc2)c1-c1ccccc1 | 0.599 | 1.85 |
| O=C1C2=C(CC3C(C2)C3(Br)Br)C(=O)C2=C1CC1C(C2)C1(Br)Br (stereo unspecified) | – | > 100 |
| CC(C)=CC(=O)N1CCN(C(=O)C=C(C)C)CC1 | – | > 100 |
| CCCCC/C=C/C/C=C/CCCCCCCC1=NC(C)(C)CN1C(C)C | 1.7 | 3.07 |
| CCc1cccc(C)c1NC(C)=O | – | > 100 |
| O=C(CC(=O)N1N=C(c2ccccc2)C(N=Nc2ccc(Cl)cc2)C1=O)Nc1ccccc1Cl (stereo unspecified) | – | 48.8 |

tested on: 786-0 renal; experiment: inhibition of tumour cell growth, NCI panel, 48 h

| Compound | GI50 [µM] | TGI [µM] |
| --- | --- | --- |
| CC(C)(C)OC(=O)N(CCCN(CCn1c2c(c3ccccc3c1=O)C(=O)c1ccccc1-2)C(=O)OC(C)(C)C)CCn1c2c(c3ccccc3c1=O)C(=O)c1ccccc1-2 | 16.5 | > 50 |
| CCN(CC)C(=O)C/C(C)=N/NC(=O)c1ccncc1 | – | > 100 |
| Cc1c2c(nn1-c1ccc(S(=O)(=O)/N=C3\SCC(=O)N3C(=O)c3ccccc3)cc1)-c1ccccc1CC2 | 28.9 | 77.9 |
| Cc1ccc(N=NC(C(=O)c2ccccc2)C(=O)c2ccccc2)cc1 | – | 40 |
| Cc1ccc(NC(=O)C2C(=O)N(c3ccc(C)c(C)c3)C(=O)/C2=N/O)cc1C (stereo unspecified) | – | > 100 |
| Nc1c(-c2ccc(Br)cc2)[n+]([O-])c2ccccc2[n+]1[O-] | – | > 100 |
| CCCCNC(=O)NS(=O)(=O)c1ccc(N2N=C(c3ccc(C)cc3C)CC2c2ccc(N(C)C)cc2)cc1 (stereo unspecified) | 5.45 | > 100 |
| C#CC[C@]12CC(=O)CC[C@H]1CC(=O)C2 | – | > 100 |
| CNC=O.[O]=[Ge].[O]=[Ge].[O]=[Ge].[O]=[Ge][OH].[O]=[Ge][OH] | – | > 100 |
| CCOC(=O)c1c(C)n(Cc2ccc(OC)cc2)c2c1cc(O)c1[nH]c3c(c12)CCCC3 | 13.1 | 49.4 |
| N#CCCN(c1ccc(/C=C2\N=C(c3ccc(Cl)cc3)OC2=O)cc1)S(=O)(=O)c1ccccc1 | – | > 100 |
| Cc1cc(NS(=O)(=O)c2ccc(NC(=O)c3cccc4c(=O)c5ccccc5[nH]c34)cc2)no1 | – | 38.2 |
| O=C(/C=C/c1ccccc1Cl)c1ccccc1Cl | – | 28.8 |
| CC(C)=[CH][Sb]([Br])([CH]=C(C)C)([CH]=C(C)C)[CH]=C(C)C | 34.4 | > 100 |
| COc1cc([N+](=O)[O-])ccc1NC(=O)C(F)(F)F | – | > 100 |
| COc1cc(-c2c(C#N)c(N)n3c(nc4ccccc43)c2C#N)cc(Br)c1OC | 6.24 | > 100 |
| N#CCCN(CCC#N)c1ccc(/C=C2\N=C(CN3C(=O)c4ccccc4C3=O)OC2=O)cc1 | – | > 100 |
| N#C/C(C(=S)Nc1ccccc1)=C1/NN=C2c3ccccc3C(=O)NN21 | 38 | > 100 |
| CSc1nc(NC2OC(COC(C)=O)C(OC(C)=O)C(OC(C)=O)C2OC(C)=O)c2c(OC(C)=O)c(C)c(=O)oc2n1 (stereo unspecified) | – | > 100 |
| CC#CC(=O)Nc1ccccc1CC(c1c[nH]c2ccccc12)c1c[nH]c2ccccc12 | – | 43 |
| COC(=O)C(=O)C(C(=O)C=C(C)C)C(=O)C(=O)Nc1ccc(Cl)cc1C (stereo unspecified) | – | > 100 |
| CC(=O)[O][Hg][c]1c(C)c(C)c(C)c(C)c1C | 1.65 | 3.03 |
| C[C@]12CC[C@@H]3c4ccc(Oc5nc(N6CC6)nc(N6CC6)n5)cc4CC[C@H]3[C@@H]1CCC2=O | 3.41 | 22.3 |
| COc1cc(C(=O)O[C@H](C(N)=O)[C@]2(C)CO2)c2ccccc2c1 | 5.08 | 17.3 |
| Cc1cccc(C(C)(C)C)c1NC(=O)CCc1n[nH]c(=S)o1 | – | > 100 |
